The record followed here is patent US20250170115A1, “LENALIDOMIDE ORAL SOLUTION” (A FINE HOUSE S.A., priority 2021, published 2025).

A short description of this series: Precipitation after preparation of lenalidomide compositions without glycol or polyol. Type of series: physicochemical. The settings on record: lenalidomide dissolved in an aqueous buffer at pH between 1.0 and 3.5; a few minutes. How it is done:
A composition was prepared according to example 23 of WO 1998/03502. The solution contained 5.0 g lenalidomide, 22.5 g sodium chloride, 300.0 g phosphate buffer with pH 7.4 and demineralized water. The pH of the final composition was 7.4.
Similar results (i.e. precipitation) were obtained a few minutes after lenalidomide was dissolved in an aqueous buffer at pH between 1.0 and 3.5.
Likewise, attempts to prepare an oral solution by combining lenalidomide with any one of arginine, leucine, povidone K25, sodium lauryl sulfate, hydroxypropyl methylcellulose, poloxamer 20, in an aqueous buffer at pH 2.0 or pH 2.5 led to the formation of precipitate within minutes of the preparation of the compositions.

For the compound `Nc1cccc2c1CN(C1CCC(=O)NC1=O)C2=O` (racemic) [Lenalidomide, 1-oxo-(2,6-dioxopiperidin-3-yl)-4-aminoisoindoline], the precipitation after dissolution entry is listed as “precipitation”.
